Measurements reported in patent US20100197710A1, “Methods Of Activating IRS-1 And AKT” (MELIOR PHARMACEUTICALS I, INC., priority 2007, published 2010).

Columns and labels:
[1] = system: mouse model of hyperglycemia; assay: Oral glucose tolerance test; assay type: in vivo, mice
From the text: Type II diabetes is characterized by high blood glucose level in the presence of normal amounts of insulin. Animal models of type II diabetes involve administering a high level of glucose and measuring blood glucose level and the ability of the experimental animal to maintain glucose homeostasis over time. Several pharmacological structural classes can effectively regulate this hyperglycemic response including sulfonylureas, thiazoladinediones (PPARγ agonists; glitazones) or metformin (glucophage). These drug classes are also clinically approved for use in humans. In the current study, a mouse model of hyperglycemia has been established by administering high level of glucose to mice.
Glucose was formulated in water at a concentration of 150 mg/ml and dosed at a volume of 10 ml/kg to produce a dose of 1.5 g/kg. Glucose was measured using the Ascensia II Elite XL glucose monitor (Bayer). Glucose was measured by taking a small (2 mm) section off the tip of the tail, bleed onto glucose test strip. Data for each time point was analyzed by ANOVA and post-hoc Tukey's test. A p value of less then 0.05 was used to indicate statistical significance. Two studies were conducted with the following Compound 102.
In study 1, mice were dosed with Compound 102 and glucose as follows:
In study 2, mice were dosed with Compound 102 and glucose as follows.
Study 3 tested Compound 102 and was conducted as follows: […]

[2] = system: Zucker rats; assay: In vivo Zucker rat glucose study; settings: 30 mg/kg ip, glucose 1.5 g/kg oral gavage, 30 and 270 minutes after glucose
Protocol: Zucker rats and corresponding lean rats were supplied by Harlan. Rats were fed a normal diet, ad libitum, and kept on a 12 hour light/dark cycle. Rats were housed 3 per cage. At 12 weeks of age, Zucker rats were administered Compound 102 at a concentration of 30 mg/kg (ip). Blood glucose level was measured 30 minutes after administration. Forty-five minutes after drug administration, animals were administered a glucose solution (1.5 g/kg) by oral gavage. Blood glucose level was measured every 30 minutes after gavage for 4.5 hours. There were 3 groups with 3 animals per group: 1) 3 Zucker leans (no drug; no glucose treatment); 2) Zucker vehicle treated group (glucose challenged); and 3) Zucker Compound 102 treatment (30 mg/kg); glucose challenged.

[3] = system: AKT; assay: AKT phosphorylation in vivo (immunoprecipitation); settings: mice, fat pads and livers removed ninety minutes after drug administration, FIG. 3
Protocol: (§1) The following studies were conducted to determine whether Compound 102 activated lyn kinase in vivo. This determination was conducted by measuring activation (phosphorylation) of downstream substrates of Lyn in mice treated with Compound 102. Referring to FIGS. 2A, 2B, and 3, mice were administered Compound 102 at the indicated dose. Ninety minutes after drug administration, fat pads and livers were removed. IRS-1 phosphorylation was measured by immunoprecipitation using an anti-phosphotyrosine antibody and probing with either IRS-1 or AKT antibody.

[4] = system: IRS-1; assay: IRS-1 phosphorylation in vivo (immunoprecipitation); settings: mice, fat pads and livers removed ninety minutes after drug administration, FIGS. 2A, 2B
Protocol: as §1

[5] = system: Db/Db mice; assay: In vivo Db/Db mouse study, obesity study; settings: 28 days
Protocol: (§2) Db/Db and Db/lean mice were obtained from Harlan at 6 weeks of age. Mice were housed 3 per cage and fed ad libitum normal rodent chow. Mice were kept on a 12 hour light:dark cycle.
(§3) The study was initiated when mice reached an age of 8 weeks and their baseline blood glucose level was greater than 200 mg/dl. Compound 102 was formulated in PBS:2N HCl (99:1) at concentrations of 0.5, 1.5 and 5 mg/ml. Mice were dosed at volumes of 10 ml/kg to produce doses of 5, 15 and 50 mg/kg/dose. Mice were dosed twice per day at an 8 hour interval (8 am and 4 pm) during the light cycle.
Mice were administered vehicle or drug (i.e., Compound 102) (5, 15, and 50 mg/kg) twice per day (bid) for the 28 days. Mouse weight and food intake were monitored daily. Food intake is reported as food intake (grams) per mouse per 24 hour period.

[6] = system: Db/Db Leptin Receptor deficient diabetes/metabolic syndrome animal model; assay: In vivo Db/Db mouse study, glucose study; settings: Db/Db mice
Protocol: as §2, §3
For the acute blood glucose measurements, blood glucose level was measured after the animals received their first dose of Compound 102. Blood glucose level was measured two hours after this initial injection.
In this study, mice were dosed with Compound 102 IP, twice/day over the course of four weeks.

[7] = system: mice on western diet; assay: Leptin level in Western Diet treated animals (ELISA); assay type: in vivo; settings: mice fed western diet, bled days 7, 14, 21, 28, dosed 1 hour prior to bleed
Protocol: Blood from mice that were on western diet (Compound 102) were analyzed for leptin level. Mice were bled by retroorbital eyebleed on days 7, 14, 21 and 28 after the initiation of the study. On day of REB, mice were dosed once with full dose 1 hour prior to bleed. Leptin level was determined by ELISA (R&D Systems) as per directions. Data are expressed as the average±SEM. Data were averaged and analyzed by ANOVA followed by a post-hoc Tukey's test with a p value of less then 0.05 indicating a statistical difference.

[8] = system: Male CD1/ICR mice fed Western Diet; assay: Western Diet study (weight, food intake, fat pads); assay type: in vivo
Protocol: Male CD1/ICR mice were obtained from Harlan. The study was started when mice were 8 weeks of age. Prior to initiation of the study mice fasted for 24 hours. Mice were fed “Western Diet” that was designed to approximate the “typical” human diet of North America and Europe (Research Diets; New Brunswick, N.J.; Western Diet composition). The Western Diet contained greater than 5 times more fat than normal chow. [table] Mice were weighed daily beginning from the start of the 24 hour fasting period. Food intake was monitored continuously. Mice were bled by retroorbital eyebleed on days 7, 14, 21 and 28 after the initiation of the study. On day of REB, mice were dosed 1× with full dose 1 hour prior to bleed. Fat pads were dissected at the end of the study (day 31) weighed and frozen. The following fat pads were dissected: brown, inguinal, axial, mesenteric, renal, and epidydimal. Data were averaged and analyzed by ANOVA followed by a post-hoc Tukey's test with a p value of less then 0.05 indicating a statistical difference.

[9] = IP twice/day over four weeks, 5, 15, 50 mg/kg
[10] = study 1, mice, single administration, 30 mg/kg

SMILES: CN(C)C(=N)N=C(N)N [metformin, reference compound]
- blood glucose load ([1]; validation of the mouse model of hyperglycemia): effectively reduce

SMILES: O=c1ncc(Oc2cccc(Cl)c2)c[nH]1 [Compound 105]
- baseline blood glucose level ([1]; mice, single dose of 2 or 10 mg/kg): significantly depressed
- blood glucose level at all time points after administration ([1]; mice, single dose of 2 or 10 mg/kg, P<0.05): significantly (P<0.05) reduced

SMILES: Cc1cccc(Oc2cnc(=O)[nH]c2)c1 [Compound 102]
- blood glucose level after oral glucose administration [2]: reduced blood glucose level
- phosphorylation of AKT [3]: increases
- phosphorylation of IRS-1 [4]: increases
- weight-gain response ([5]; chronic administration, 5, 15, 50 mg/kg bid): significantly inhibited
- defecation ([5]; chronic administration, bid): defecated normally
- acute blood glucose response in dose groups ([6]; 15 mg/kg and 50 mg/kg dose groups, upon study initiation and on weekly blood glucose testing): acute dose response
- animal weight gain [6, 9]: dose dependent effect
- blood glucose level [6, 9]: dose dependent effect
- blood glucose level following acute administration ([6]; measured two hours after first dose): reduce blood glucose level
- blood leptin level [7]: reduced leptin level to those fed a normal diet
- normal blood glucose level (pre-glucose loading) [1, 10]: significantly decreased
- time after drug administration at which significance was lost [1, 10]: 90 min
- blood glucose level produced by oral glucose administration ([1]; study 1, mice, single administration, 30 mg/kg, oral glucose 1.5 g/kg): significantly attenuated
- effect on blood glucose level ([1]; study 2, mice, increased (repeated) dosing): more dramatic effect
- brown, axial, inguinal, renal and epididymal fat pad increases ([8]; fat pads dissected day 31): significantly reduced
- weight gain (absolute weight and weight change from day 0) ([8]; highest dose tested 30 mg/kg/day): significantly reduced
